Read-outs that look alike come from different tables or passages of the source.
Columns and labels:
human C1 r = target: T1, human C1 r (Homo sapiens, UniProt P00736); assay: Assay of C1r Enzyme Activity (Assay 1), thioester substrate z-Gly-Arg-S-Bzl with DTNB; format: biochemical
T1 construct: purchased Enzyme Research Labs (South Bend, Ind.)
T1 sequence (P00736 464-705 limits assumed): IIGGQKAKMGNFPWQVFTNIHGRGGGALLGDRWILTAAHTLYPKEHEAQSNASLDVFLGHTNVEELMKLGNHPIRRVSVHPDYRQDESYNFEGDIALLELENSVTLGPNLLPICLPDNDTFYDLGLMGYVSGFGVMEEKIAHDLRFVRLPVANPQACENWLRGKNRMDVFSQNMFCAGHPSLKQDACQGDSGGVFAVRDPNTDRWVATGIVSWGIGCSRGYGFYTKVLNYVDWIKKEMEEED
T1 sequence (P00736 18-463 partner limits assumed): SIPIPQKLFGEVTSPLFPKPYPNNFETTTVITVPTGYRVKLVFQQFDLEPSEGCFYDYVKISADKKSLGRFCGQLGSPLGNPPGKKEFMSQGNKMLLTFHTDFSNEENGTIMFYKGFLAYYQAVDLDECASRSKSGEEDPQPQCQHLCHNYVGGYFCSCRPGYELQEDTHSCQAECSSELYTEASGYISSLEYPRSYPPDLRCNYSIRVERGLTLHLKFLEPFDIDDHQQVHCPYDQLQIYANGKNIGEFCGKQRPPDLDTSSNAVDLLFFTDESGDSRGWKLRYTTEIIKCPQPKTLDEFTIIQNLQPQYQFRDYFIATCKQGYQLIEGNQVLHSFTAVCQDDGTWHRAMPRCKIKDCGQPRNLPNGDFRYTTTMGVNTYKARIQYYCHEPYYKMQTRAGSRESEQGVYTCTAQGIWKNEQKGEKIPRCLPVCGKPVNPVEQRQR
Description: Assay of C1 r Enzyme Activity Purified human C1 r was obtained commercially from Enzyme Research Labs (South Bend, Ind.). The enzyme is stored frozen at -70° C. at a stock concentration of about 1 mg/mL of protein until the enzyme is needed. […] The thioester substrate, z-Gly-Arg-S-Bzl, for C1 r assays (McRae, et al., 1981) is obtained commercially from Enzyme System Products (Livermore, Calif.). All other reagents were obtained from Sigma Chemical Co. (St. Louis, Mo.). The procedure for assaying the inhibition of C1 r enzyme activity is as follows. A 5 mM stock solution of z-Gly-Arg-S-Bzl is made in dimethylsulfoxide (DMSO) and stored at room temperature until needed. The stock substrate solution is diluted 3 parts stock substrate solution to 7 parts distilled water to make a 1.5 mM working substrate solution. The working substrate solution is made just before it is needed. A fresh solution of 20 μg/mL of C1 r enzyme is made in 10 mM Tris buffer, pH 7.4. The enzyme solution can be stored on ice for up to an hour. […] Compounds at concentrations ranging from 1 mM to 0.010 mM are dissolved in DMSO and a 10 μL aliquot of each concentration is deposited in a well of a 96-well microtiter plate. Fifty microliters of the working substrate solution and 50 μL of DTNB solution are then dispensed in the wells of the microtiter plate, followed by the immediate addition of 50 μL of the C1 r enzyme solution to start the assay. The assay produces a yellow color that is read in the kinetic mode using a Molecular Devices Thermomax microplate reader set to a wavelength of 405 nm. The assay background is followed by monitoring wells that contain substrate, buffer, and DTNB solutions but no enzyme. All assays are performed in triplicate at each inhibitor concentration tested. Values for each inhibitor concentration are reported as optical density (OD)/minute.

[1] = target: T2, human complement protease C1 r (Homo sapiens, UniProt P00736); assay: Assay 2, inhibition of human complement protease C1r with substrate ZVGR-pNA; format: biochemical; settings: Table 2; substrate ZVGR-pNA 1.2 mM, pH 7.4, 25° C., 10 minutes preincubation; read-out: Inhibition of Clr ZVGRpNA - Assay 2
T2 sequence (P00736 464-705 limits assumed): T1 sequence (P00736 464-705 limits assumed)
T2 sequence (P00736 18-463 partner limits assumed): T1 sequence (P00736 18-463 partner limits assumed)
Description: The assay was performed in a 96-well format. Fifty microliters of water were added to each well followed by 2.5 μL of an inhibitory agent, usually in dimethyl foramide (DMF) (or water). A C1 r solution (100 μL) containing 0.1 μg of activated human C1 r and 100 mM Tris-HCl (pH 7.4 at 25° C.) was then added. The mixture was incubated for 10 minutes at 25° C. The reaction was then started by the addition of 100 μL of a 3 mM (Cbz-Val-Gly-Arg-p-nitroanilide) ZVGR-pNA solution. The final reaction mixture (250 μL) contained 40 mM of Tris-HCl, 1.2 mM of ZVGR-pNA, 0.1 μg C1 R and certain concentration of an inhibitor. The production of p-nitroaniline was monitored at 405 nm every 15 minutes up to 90 minutes (at 25° C.). The velocity was linear for at least 60 minutes.

[2] = Table 2, pH 7.4-7.5, read-out: Inhibition of Clr Assay 1 IC50
[3] = Table 1 and text, pH 7.4-7.5, read-out: Inhibition of Clr Assay 1 (IC50)

| SMILES | IC50 (human C1 r; [2]) [µM] | IC50 [1] [µM] | IC50 (human C1 r; [3]) [µM] |
| --- | --- | --- | --- |
| CN(C(=O)C1CCCCC1)c1nc2ccccc2c(=O)o1 [Example 65, Cyclohexanecarboxylic acid methyl-(4-oxo-4H-benzo[d][1,3]oxazin-2-yl)-amide] | 1.2 | 0.0078 |  |
| CCCCCCCCCCC(=O)N(C)c1nc2ccccc2c(=O)o1 [Example 67, Undecanoic acid methyl-(4-oxo-4H-benzo[d][1,3]oxazin-2-yl)-amide] | > 62.5 | 0.5 |  |
| CCCCCCC(=O)N(CC)c1nc2ccccc2c(=O)o1 [Example 66, Heptanoic acid ethyl-(4-oxo-4H-benzo[d][1,3]oxazin-2-yl)-amide] | 6.32 | 0.029 |  |
| CCCCCCC(=O)N(C)c1nc2ccccc2c(=O)o1 [Example 64, Heptanoic acid methyl-(4-oxo-4H-benzo[d][1,3]oxazin-2-yl)-amide] | 0.68 | 0.0478 |  |
| CN(C(=O)CCc1ccccc1)c1nc2ccccc2c(=O)o1 [Example 68, N-Methyl-N-(4-oxo-4H-benzo[d][1,3]oxazin-2-yl)-3-phenyl-propionamide] | 1.3 | 0.103 |  |
| CC(=O)N(C)c1nc2ccccc2c(=O)o1 [Example 69, N-Methyl-N-(4-oxo-4H-benzo[d][1,3]oxazin-2-yl)acetamide] | 30 | 0.399 |  |
| COc1ccc2nc(N(C)C(=O)c3ccccc3I)oc(=O)c2c1 [Example 43, 2-Iodo-N-(6-methoxy-4-oxo-4H-benzo[d][1,3]oxazin-2-yl)-N-methyl-benzamide] |  |  | 48 |
| CN(C(=O)c1ccccc1I)c1nc2ccc(Cl)cc2c(=O)o1 [Example 41, N-(6-Chloro-4-oxo-4H-benzo[d][1,3]oxazin-2-yl)-2-iodo-N-methyl-benzamide] |  |  | > 66 |
| Cc1ccccc1C(=O)N(C)c1nc2ccccc2c(=O)o1 [Example 36, 2,N-Dimethyl-N-(4-oxo-4H-benzo[d][1,3]oxazin-2-yl)-benzamide] |  |  | > 67 |
| COc1ccc2nc(Nc3ccccc3I)oc(=O)c2c1 [Example 24, 2-(2-Iodo-phenylamino)-6-methoxy-benzo[d][1,3]oxazin-4-one] |  |  | 55 |
| COc1ccc2c(=O)oc(Nc3ccccc3I)nc2c1 [Example 25, 2-(2-Iodo-phenylamino)-7-methoxy-benzo[d][1,3]oxazin-4-one] |  |  | > 66 |
| CN(C(=O)c1ccccc1Cl)c1nc2ccccc2c(=O)o1 [Example 34, 2-Chloro-N-methyl-N-(4-oxo-4H-benzo[d][1,3]oxazin-2-yl)-benzamide] |  |  | 16 |
| CN(C(=O)c1ccccc1I)c1nc2cc(Cl)ccc2c(=O)o1 [Example 42, N-(7-Chloro-4-oxo-4H-benzo[d][1,3]oxazin-2-yl)-2-iodo-N-methyl-benzamide] |  |  | 18 |

The next lines start with the values.

| IC50 (human C1 r; [2]) [µM] | IC50 [1] [µM] | IC50 (human C1 r; [3]) [µM] | SMILES |
| --- | --- | --- | --- |
|  |  | 16 | CCCCc1ccc(C(=O)N(C)c2nc3ccccc3c(=O)o2)cc1 [Example 58, 4-Butyl-N-methyl-N-(4-oxo-4H-benzo[d][1,3]oxazin-2-yl)-benzamide] |
|  |  | 12 | N=C(N)c1ccc2cc(OC(=O)c3ccc(N=C(N)N)cc3)ccc2c1 [FUT-175, reference compound] |
|  |  | 1.5 | O=c1oc(Nc2c(Cl)cccc2Cl)nc2ccccc12 [Example 53, 2-(2,6-Dichloro-phenylamino)-benzo[d][1,3]oxazin-4-one] |
|  |  | 0.8 | Cc1ccc2c(=O)oc(Nc3ccccc3I)nc2c1 [Example 28, 2-(2-Iodo-phenylamino)-7-methyl-benzo[d][1,3]oxazin-4-one] |
|  |  | 7 | O=c1oc(Nc2ccccc2I)nc2cc(F)c(F)cc12 [Example 46, 6,7-Difluoro-2-(2-iodo-phenylamino)-benzo[d][1,3]oxazin-4-one] |
|  |  | 0.8 | CSc1ccccc1C(=O)N(C)c1nc2ccccc2c(=O)o1 [Example 15, N-Methyl-2-methylsulfanyl-N-(4-oxo-4H-benzo[d][1,3]oxazin-2-yl)-benzamide] |
|  |  | 3.5 | O=c1oc(Nc2ccccc2I)nc2ccccc12 [Example 4, 2-(2-Iodo-phenylamino)-benzo[d][1,3]oxazin-4-one] |
|  |  | 3.1 | CN(C(=O)c1ccccc1I)c1nc2ccccc2c(=O)o1 [Example 12, 2-Iodo-N-methyl-N-(4-oxo-4H-benzo[d][1,3]oxazin-2-yl)-benzamide] |
|  |  | 0.75 | O=c1oc(Nc2ccccc2I)nc2cc([N+](=O)[O-])ccc12 [Example 30, 2-(2-Iodo-phenylamino)-7-nitro-benzo[d][1,3]oxazin-4-one] |
|  |  | 4 | CN(C(=O)c1ccccc1Br)c1nc2ccccc2c(=O)o1 [Example 14, 2-Bromo-N-methyl-N-(4-oxo-4H-benzo[d][1,3]oxazin-2-yl)-benzamide] |
|  |  | 2 | O=c1oc(Nc2ccccc2Cl)nc2cc(Cl)c(Cl)cc12 [Example 48, 6,7-Dichloro-2-(2-chloro-phenylamino)-benzo[d][1,3]oxazin-4-one] |
|  |  | 8 | CN(C(=O)c1c(Cl)cccc1Cl)c1nc2ccccc2c(=O)o1 [Example 13, 2,6-Dichloro-N-methyl-N-(4-oxo-4H-benzo[d][1,3]oxazin-2-yl)-benzamide] |
